Reference: US7550478B2, “Tyrosine kinase inhibitors” (Merck & Co. Inc., priority 2006, dated 2009)

Target: T1, human c-Met (Homo sapiens, UniProt P08581)
T1 construct: Recombinant GST-tagged cytosolic domains of human c-Met; 6xHis; made in house; host or cells: Sf9 or Sf21 insect cells (baculovirus, Pharmingen vector pGcGHLT-A, B or C)
Assay: In vitro kinase assay (homogeneous time-resolved tyrosine kinase assay, HTRF) for c-Met
Assay type: biochemical
Details: recombinant GST-tagged cytosolic domain of c-Met, 0.2 nM c-Met, 50 μM MgATP, 80 min at room temperature
Text: Recombinant GST-tagged cytosolic domains of human c-Met and other receptor tyrosine kinases including mouse c-Met, human Ron, KDR, IGFR, EGFR, FGFR, Mer, TrkA and Tie2 are used to determine whether the compounds of the instant invention modulate the enzymatic activities of these kinases.
Soluble recombinant GST-tagged cytosolic domains of c-Met and other receptor tyrosine kinases are expressed in a baculovirus system (Pharmingen) according to a protocol recommended by the manufacturer. The c-DNA encoding each cytosolic domain is subcloned into a baculovirus expression vector (pGcGHLT-A, B or C, Pharmingen) containing an in frame 6× histidine tag and a GST tag. […] The protein concentrations of the fusion proteins are determined using Coomassie Plus Protein Assay (Pierce) with BSA as standard.
The kinase activities of c-Met and other kinases are measured using a modified version of the homogeneous time-resolved tyrosine kinase assay described by Park et al. (1999, Anal. Biochem. 269:94-104).
The procedure for determining the potency of a compound to inhibit c-Met kinase comprises the following steps: • 1. […] Read HTRF signals on a Victor reader (PerkinElmer) in HTRF mode after 60 min. • 6. IC50 is determined by fitting the observed relationship between compound concentration and HTRF signal with a 4-parameter logistic equation. […]

T1 sequence (P08581 956-1390 limits assumed): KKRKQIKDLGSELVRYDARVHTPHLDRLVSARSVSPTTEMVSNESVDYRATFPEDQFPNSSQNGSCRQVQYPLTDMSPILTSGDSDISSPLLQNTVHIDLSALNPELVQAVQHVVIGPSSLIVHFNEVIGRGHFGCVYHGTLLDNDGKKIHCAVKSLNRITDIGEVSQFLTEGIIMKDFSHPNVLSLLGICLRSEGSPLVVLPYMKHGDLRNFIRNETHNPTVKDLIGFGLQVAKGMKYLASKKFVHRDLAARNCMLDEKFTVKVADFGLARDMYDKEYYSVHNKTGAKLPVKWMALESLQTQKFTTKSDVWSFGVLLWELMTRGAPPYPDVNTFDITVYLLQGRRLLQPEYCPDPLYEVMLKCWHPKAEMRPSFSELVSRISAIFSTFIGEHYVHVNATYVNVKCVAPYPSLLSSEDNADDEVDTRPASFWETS

- IC50: ≤ 50 µM
SMILES: O=c1c2cc(-c3ccccc3)cnc2ccc2cccc(Br)c12 [Compound 3, 6-bromo-3-phenyl-5H-benzo[4,5]cyclohepta[1,2-b]pyridin-5-one]
